Target: T1, ARK-2: aurora kinase-2 (aurora A kinase) (Homo sapiens, UniProt O14965)
T1 construct: purchased
Experiment: Aurora-A (human) kinase assay
Format: biochemical
Settings: Table 2; 15 μM ATP; read-out: Kinase Inhibition IC50 ARK-2
Protocol: Aurora-A (human) kinase assay. This was achieved by measurement of incorporation of radioactive phosphate from ATP into Kemptide substrate (LRRASLG), upon phosphorylation by commercially obtained aurora-A kinase. Assays were performed using 96-well plates and appropriate assay buffers (8 mM MOPS, 0.2 mM EDTA, pH 7.0), into which were added 5-10 ng of active enzyme with 200 μM substrate (Kemptide). […] Reactions were stopped by addition of 3% phosphoric acid, followed by filtration through p81 filterplates (Whatman Polyfiltronics, Kent, UK). After washing 5 times with 75 mM aq orthophosphoric acid and once in methanol, plates were dried, scintillant added and incorporated radioactivity measured in a scintillation counter (TopCount, Packard Instruments, Pangbourne, Berks, UK). Compounds for kinase assay were made up as 10 mM stocks in DMSO and diluted into 10% DMSO in assay buffer.

T1 sequence (O14965 whole entry): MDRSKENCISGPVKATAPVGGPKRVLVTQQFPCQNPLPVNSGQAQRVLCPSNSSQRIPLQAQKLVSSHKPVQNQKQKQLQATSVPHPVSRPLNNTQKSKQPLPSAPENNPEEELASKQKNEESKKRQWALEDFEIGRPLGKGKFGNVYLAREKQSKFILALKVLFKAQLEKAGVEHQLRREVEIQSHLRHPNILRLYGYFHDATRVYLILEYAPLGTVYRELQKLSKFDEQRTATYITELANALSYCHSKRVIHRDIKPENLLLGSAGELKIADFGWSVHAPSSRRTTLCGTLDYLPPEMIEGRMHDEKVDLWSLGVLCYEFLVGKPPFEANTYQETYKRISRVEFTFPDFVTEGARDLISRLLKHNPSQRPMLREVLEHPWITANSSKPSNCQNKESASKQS

CC[C@@H](N)C(=O)Nc1nc(C)c(-c2ccnc(Nc3cccc([N+](=O)[O-])c3)n2)s1 [Compound 16, (2R)-2-Amino-N-{4-methyl-5-[2-(3-nitro-phenylamino)-pyrimidin-4-yl]-thiazol-2-yl}-butyramide] showed an IC50 of 2800 nM.

— patent US7432260B2, “Pyrimidine compounds” (Cyclacel Limted, priority 2002, dated 2008)
